{
  "source": "patent US20120065228A1",
  "about": "“COMPOSITIONS AND METHODS FOR TREATING, CONTROLLING, REDUCING, OR AMELIORATING OCULAR INFLAMMATORY WITH LOWER RISK OF INCREASED INTRAOCULAR PRESSURE” (priority 2007, published 2012)",
  "key": {"[1]": {"test_system": "PGE2 in the aqueous humor", "experiment": "Prostaglandin E2 (PGE2) measurement in aqueous humor, rabbit paracentesis model", "type": "in vivo", "conditions": "for PGE2 in aqueous humor, statistical significance versus CTR: p<0.05; for PGE2 in aqueous humor, Mean / PGE2 in aqueous humor: second paracentesis; for PGE2 in aqueous humor: individual eyes", "experimental": "Each rabbit was placed in a restraint device and tagged with the alphanumeric code. The formulations were instilled (50 μl) into the conjunctival sac of both eyes 180, 120, 90 and 30 min before the first paracentesis; then 15, 30, 90 min after the first paracentesis. To perform the first paracentesis the animals were anaesthetized by intravenous injection of 5 mg/kg Zoletil® (Virbac; 2.5 mg/kg tiletamine HCl and 2.5 mg/kg zolazepam HCl) and one drop of local anesthetic (Novesina®, Novartis) was administered to the eye. Anterior chamber paracentesis was performed with a 26 G needle attached to a tuberculin syringe; the needle was introduced into the anterior chamber through the cornea, taking care not to damage the tissues. Two hours after the ® first paracentesis, the animals were sacrificed with 0.4 ml Tanax® (Intervet International B.V.) and the second paracentesis was performed. About 100 μl of aqueous humor were removed at the second paracentesis. Aqueous humor was immediately split in four aliquots and stored at −80° C. until analysis. Then both eyes were enucleated and the iris-ciliary body was carefully excised, placed in polypropylene tubes, and stored at −80° C. until analysis.\nFor the quantitative determination of PGE2 in the aqueous humor we used the PGE2 Immunoassay kit (R&D Systems; Cat. No. KGE004; Lot. No. 240010). Eleven microliters or 16 μl of aqueous humor were diluted to 110 μl or 160 μl with the calibrator diluent solution provided with the kit. One hundred microliters of samples and of standards were load into a 96-well plate and recorded in a plate layout. Samples were treated following the assay procedure described in the kit. A microplate reader (GDV, Italy; model DV 990 B/V6) set at 450 nm (wavelength correction at 540 nm) was used for making the calibration and analyzing the samples.\nPupillary diameter, PGE2, protein, PMN, and MPO were expressed as mean±SEM. Statistical analysis was performed using one way ANOVA followed by a Newman-Keuls post hoc test. Clinical score was expressed as % of eyes and the statistical analysis was performed using Kruskal-Wallis followed by a Dunn post hoc test. P<0.05 was considered statistically significant in both cases. Prism 4 software (GraphPad Software, Inc.) was used for the analysis and graphs."}, "[2]": {"test_system": "rabbit eyes", "experiment": "Ophthalmic observations (slit lamp, McDonald Shadduck) in the rabbit IOP study", "type": "in vivo, New Zealand White rabbits", "design": "key to Cornea Score: 1: Some loss of transparency. Only the epithelium and/or the anterior half of the stoma are involved. The underlying structures are clearly visible although some cloudiness may be readily apparent; key to Conjunctival congestion Score: A flushed, reddish color predominantly confined to the palpebral conjunctiva with some perilimbal injection but primarily confined to the lower and upper parts of the eye from the 4:00 to 7:00 and 11:00 to 1:00 positions", "conditions": "for Conjunctival congestion Score: individual rabbit; for Ophthalmic Observation (Slit-Lamp): individual rabbits; for Ocular finding associated with unilateral topical instillation: four times daily up to 31 days, BOL-303242-X 0.05, 0.25 or 0.5 mg/dose, dexamethasone 0.05 mg/dose", "experimental": "On Days 1-31, animals received daily topical doses of the appropriate test article into the right eye. Animals were dosed four times per day, with doses administered 2 hours apart. Doses were administered using a calibrated 50-μL pipette. The eyelids were held close for 10 seconds immediately following dosing. The time of each dose administration was recorded.\nOphthalmic examinations (slit lamp) were performed prior to the first dosing on Days 5, 12, 22, 26, and 33. Ocular findings were scored according to the McDonald Shadduck system and recorded using a standardized data collection sheet."}, "[3]": {"test_system": "monkey TM cells", "experiment": "Cell metabolic activity (resazurin reduction) assay in monkey TM cells", "type": "cell-based, rhesus monkeys (Macaca mulatta)", "conditions": "at the conclusion of the treatment periods", "experimental": "A modification of previously described methods^40 was employed to evaluate cell metabolic activity, an index of cell viability. After collection of CM samples, cells were briefly rinsed in modified Hanks balanced salt solution containing Ca^++ and Mg^++ (“MHBSS”), and then 0.0025% (w/v) resazurin (Sigma) in MHBSS was added to sample wells. Plates were incubated (37° C., 5% CO2, 95% humidity) for 90 minutes, after which fluorescence (Excitation 560 nm, Emission 590 nm) was read (Victor 3V Multilabel Counter, Wallac, Turku, Finland). As a positive control for decreased cellular metabolic reduction of resazurin, in each plate an additional well of vehicle control-treated cells was preincubated with 0.06% hydrogen peroxide (Fisher, Atlanta, Ga.) in MHBSS."}, "[4]": {"conditions": "1 mg/g BOL-303242-X 4 x daily, treated right eye, Day 22"}, "[5]": {"conditions": "5 mg/g BOL-303242-X 4 x daily, treated right eye, Day 5"}, "[6]": {"conditions": "5 mg/g BOL-303242-X 4 x daily, treated right eye, Day 22"}, "[7]": {"conditions": "5 mg/g BOL-303242-X 4 x daily, treated right eye, Day 22, 26"}, "[8]": {"conditions": "5 mg/g BOL-303242-X 4 x daily, treated right eye, Day 26"}, "[9]": {"conditions": "10 mg/g BOL-303242-X 4 x daily, treated right eye, Day 5, 12"}, "[10]": {"conditions": "10 mg/g BOL-303242-X 4 x daily, treated right eye, Day 12"}, "[11]": {"conditions": "10 mg/g BOL-303242-X 4 x daily, treated right eye, Day 26"}, "[12]": {"conditions": "0.1% Dexamethasone 4 x daily, treated right eye, Day 5"}, "[13]": {"conditions": "0.1% Dexamethasone 4 x daily, treated right eye, Day 22"}},
  "note": "Several values for one entry are separate records, joined by “and”; a condition that tells them apart may be missing. Identical values can stand only once.",
  "data": [
    {"molecule": "Cc1ccc2c(NCC(O)(CC(C)(C)c3cc(F)cc4c3OCC4)C(F)(F)F)cccc2n1", "note": "(stereo not drawn) [BOL-303242-X]", "values": [
      {"measurement": "PGE2 in aqueous humor, statistical significance versus CTR", "setting": "[1]; 0.1% topical formulation", "result": "statistically significant versus CTR"},
      {"measurement": "PGE2 in aqueous humor, Mean", "setting": "[1]; 0.1% topical formulation", "result": 1.452, "unit": "ng/mL"},
      {"measurement": "PGE2 in aqueous humor", "setting": "[1]; 0.1% topical formulation, listed as BOL", "result": "1.62 ng/mL and 1.88 ng/mL and 2.15 ng/mL and 0.70 ng/mL and 1.34 ng/mL and 1.03 ng/mL"},
      {"measurement": "PGE2 in aqueous humor, statistical significance versus CTR", "setting": "[1]; 0.5% topical formulation", "result": "statistically significant versus CTR"},
      {"measurement": "PGE2 in aqueous humor, Mean", "setting": "[1]; 0.5% topical formulation", "result": 1.384, "unit": "ng/mL"},
      {"measurement": "PGE2 in aqueous humor", "setting": "[1]; 0.5% topical formulation, listed as BOL", "result": "2.31 ng/mL and 2.59 ng/mL and 0.53 ng/mL and 0.75 ng/mL and 0.80 ng/mL and 1.62 ng/mL and 1.09 ng/mL"},
      {"measurement": "PGE2 in aqueous humor, Mean", "setting": "[1]; 1% topical formulation", "result": 2.168, "unit": "ng/mL"},
      {"measurement": "PGE2 in aqueous humor", "setting": "[1]; 1% topical formulation, listed as BOL", "result": "0.50 ng/mL and 1.87 ng/mL and 1.71 ng/mL and 4.04 ng/mL and 1.11 ng/mL and 3.78 ng/mL"},
      {"measurement": "Conjunctival congestion Score", "setting": "[2]; [4]", "result": 1},
      {"measurement": "Ophthalmic Observation (Slit-Lamp)", "setting": "[2]; [4]", "result": "Conjunctival congestion"},
      {"measurement": "Slit-lamp ophthalmic finding", "setting": "[2]; 1 mg/g suspension, dosed right eye (Group D, No. 3043)", "result": "subconjunctival hemorrhage"},
      {"measurement": "Conjunctival congestion Score", "setting": "[2]; [5]", "result": 1},
      {"measurement": "Conjunctival congestion Score", "setting": "[2]; [6]", "result": 1},
      {"measurement": "Conjunctival congestion Score", "setting": "[2]; [7]", "result": 1},
      {"measurement": "Conjunctival congestion Score", "setting": "[2]; [8]", "result": 1},
      {"measurement": "Ophthalmic Observation (Slit-Lamp)", "setting": "[2]; [5]", "result": "Conjunctival congestion"},
      {"measurement": "Ophthalmic Observation (Slit-Lamp)", "setting": "[2]; [6]", "result": "Conjunctival congestion"},
      {"measurement": "Ophthalmic Observation (Slit-Lamp)", "setting": "[2]; [7]", "result": "Conjunctival congestion"},
      {"measurement": "Ophthalmic Observation (Slit-Lamp)", "setting": "[2]; [8]", "result": "Conjunctival congestion"},
      {"measurement": "Conjunctival congestion Score", "setting": "[2]; [9]", "result": 1},
      {"measurement": "Conjunctival congestion Score", "setting": "[2]; [10]", "result": 1},
      {"measurement": "Conjunctival congestion Score", "setting": "[2]; [11]", "result": 1},
      {"measurement": "Ophthalmic Observation (Slit-Lamp)", "setting": "[2]; 10 mg/g BOL-303242-X 4 x daily, treated right eye, Day 5", "result": "Surface area of cornea involvement"},
      {"measurement": "Ophthalmic Observation (Slit-Lamp)", "setting": "[2]; [9]", "result": "Conjunctival Congestion"},
      {"measurement": "Ophthalmic Observation (Slit-Lamp)", "setting": "[2]; [10]", "result": "Conjunctival Congestion"},
      {"measurement": "Ophthalmic Observation (Slit-Lamp)", "setting": "[2]; [11]", "result": "Conjunctival Congestion"},
      {"measurement": "Surface area of cornea involvement Score", "setting": "[2]; 10 mg/g BOL-303242-X 4 x daily, treated right eye, rabbit 3083, Day 5", "result": "1 (1-25% area of stromal cloudiness.)"},
      {"measurement": "Cornea Score", "setting": "[2]; 10 mg/g BOL-303242-X 4 x daily, treated right eye, rabbit 3083, Day 5, pinpoint corneal scar", "result": "1^(2)"},
      {"measurement": "Slit-lamp ophthalmic finding", "setting": "[2]; 10 mg/g suspension, dosed right eye (Group B, No. 3083)", "result": "pinpoint corneal scar"},
      {"measurement": "Ocular finding associated with unilateral topical instillation", "setting": "[2]", "result": "sporadic mild conjunctival congestion"},
      {"measurement": "Cell viability (chemical reduction of resazurin) compared to vehicle controls", "setting": "[3]", "result": "nor did any drug treatments result in a loss of cell viability"}
    ]},
    {"molecule": "C[C@@H]1C[C@H]2[C@@H]3CCC4=CC(=O)C=C[C@]4(C)[C@@]3(F)[C@@H](O)C[C@]2(C)[C@@]1(O)C(=O)CO", "note": "[dexamethasone, reference compound]", "values": [
      {"measurement": "PGE2 in aqueous humor, Mean", "setting": "[1]; 0.1% topical formulation", "result": 2.263, "unit": "ng/mL"},
      {"measurement": "PGE2 in aqueous humor", "setting": "[1]; 0.1% topical formulation, listed as Dex", "result": "2.51 ng/ml and 2.32 ng/ml (2×) and 2.10 ng/ml and 3.03 ng/ml and 1.30 ng/ml"},
      {"measurement": "Conjunctival congestion Score", "setting": "[2]; [12]", "result": 1},
      {"measurement": "Conjunctival congestion Score", "setting": "[2]; [13]", "result": 1},
      {"measurement": "Ophthalmic Observation (Slit-Lamp)", "setting": "[2]; [12]", "result": "Conjunctival Congestion"},
      {"measurement": "Ophthalmic Observation (Slit-Lamp)", "setting": "[2]; [13]", "result": "Conjunctival Congestion"},
      {"measurement": "Ocular finding associated with unilateral topical instillation", "setting": "[2]", "result": "sporadic mild conjunctival congestion"},
      {"measurement": "Cell viability (chemical reduction of resazurin) compared to vehicle controls", "setting": "[3]", "result": "nor did any drug treatments result in a loss of cell viability"}
    ]}
  ]
}
